Experimental findings from patent EP0552417B1, “Cyclic peptides and use thereof” (priority 1991, dated 1993) are described below.

Each structure is given as a SMILES string. Non-standard residues stand in square brackets, D forms with d. Residues, ends and D or L forms follow the SMILES beside them. *: point of attachment. Bn = c1ccc(C*)cc1

One test has as its system ETB. The test is described as follows: ETB radio receptor assay *2, 125I-endothelin-1, guinea pig kidney crude membrane fraction. The following applies: relative activity, 37 °C, 90 minutes. The format is binding, Guinea pigs. As for the experimental part:
ETB Radio Receptor Assay *2
In the endothelin radio receptor assay, guinea pigs' kidneys were used. Guinea pigs (Std Hartrey, male 250 g, Japan SLC Ltd.) were made to have a cerebral concussion and sacrificed by bleeding from carotid arteries to pick up the kidneys and removed fat therefrom to prepare the kidneys. The obtained kidneys were sliced and homogenized by politron homogenizer in 20 ml of 50 mM Tris-HCl buffer [pH 7.4; 20 mM NaHCO3, 0.1 mM PMSF (Phenylmethylsulfonyl Fluoride), 1 mM EDTA (Ethylenediaminetetraacetic acid)] per one kidney. The homogenized kidney was applied to a centrifugation at 1,000 x g for 15 minutes and the supernatant was further applied to a centrifugation for 20 minutes at 30,000 x g. The resulting precipitate was twice washed with 50 mM Tris-HCl buffer (pH 7.4) containing 0.1 mM PMSF, 1 mM EDTA. The resultant was stored at -80 °C as a crude receptor membrane fraction and was used as the suspension in the following buffer when necessary.
740 Bq of ^125I-endothelin-1 (81.4 TBq/mmol, Du Pont, USA) as a radio ligand, the crude membrane fraction (2.1 µg protein) and samples were added to the following buffer. The reaction was performed at 37 °C, for 90 minutes in 0.2 ml of the buffer [50 mM Tris-HCl buffer (pH 7.4) containing 0.1 mM PMSF, 1 mM EDTA, 0.2% bovine serum albumin].
The reaction was stopped by fast filtration on a glass filter (GF/B, Wattman, USA) by Cell Harvestor (290 PHD, Cambridge-Technology, Great Britain), and the filter was three times washed with 50 mM Tris-HCl buffer (pH 7.4). Radio activity remained on the filter was assayed by a gamma counter.

The target of test [1] is T1, endothelin receptor A (ETA) (Sus scrofa, UniProt Q29010).
T1 construct: A membrane fraction prepared from the porcine heart; from tissue; host or cells: porcine heart membrane fraction
T1 sequence (Q29010 21-427): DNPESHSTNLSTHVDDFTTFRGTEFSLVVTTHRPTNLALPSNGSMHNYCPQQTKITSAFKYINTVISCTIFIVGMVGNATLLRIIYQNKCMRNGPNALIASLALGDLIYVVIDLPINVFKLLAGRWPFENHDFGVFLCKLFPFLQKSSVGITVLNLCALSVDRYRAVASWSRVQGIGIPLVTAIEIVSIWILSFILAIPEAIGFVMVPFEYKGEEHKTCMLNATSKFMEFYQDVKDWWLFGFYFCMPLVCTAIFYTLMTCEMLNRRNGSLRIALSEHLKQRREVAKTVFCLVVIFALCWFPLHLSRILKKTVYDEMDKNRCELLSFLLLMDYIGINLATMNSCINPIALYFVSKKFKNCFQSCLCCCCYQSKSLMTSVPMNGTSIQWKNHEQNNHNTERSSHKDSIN
The test is described as follows: Assay of affinity for receptor (1): binding activity on ETA receptor, 125I-labeled endothelin-1, porcine heart membrane fraction. Set-up: key: relative specific activity; reference cyclic pentapeptide ETA binding = 1.0. Conditions: specific activity, taking the binding activity of control cyclo[-D-Glu-Ala-D-aIle-Leu-D-Trp-] on receptor A as 1.0, 25°C, 1 hour. The protocol: Assay of Affinity for Receptor (1) ... Binding Activity on ETA Receptor
A membrane fraction prepared from the porcine heart was diluted to 0.15 mg/ml by using a buffer solution for assay, and 100 µl of the resulting suspension of the membrane fraction was poured into each assay tube to use for assay. To this suspension of the membrane fraction was added 2 µl of 5 nM ^125I-labeled endothelin-1 solution. Further, 3 µl of a test peptide solution was added thereto, followed by incubation at a temperature of 25°C for 1 hour. Then, the resulting suspension was diluted with 900 µl of the buffer solution for assay cooled with ice, and thereafter separated into a supernatant and a precipitate by centrifugation at 12,000 X g for 10 minutes. Cell membranes and an endothelin receptor A (ETA) embedded therein were contained in the precipitate, and radioactive iodine-labeled endothelin combined with the receptor was also recovered in the precipitate. Accordingly, the amount of radioactive iodine-labeled endothelin combined with the endothelin receptor A (ETA) was determined by measuring the amount of radioactive iodine contained in the precipitate with a gamma-ray counter. The cyclic pentapeptide described in Japanese Patent Application No. 2-413328/1990, cyclo[-D-Glu-Ala-D-aIle-Leu-D-Trp-], was used as a control compound. The numerical value of ETA shown in Table 1 is the value of specific activity, taking the binding activity of this cyclic pentapeptide on the receptor A as 1.0. The binding activity (IC50) of this cyclic pentapeptide on the ETA receptor is 2x10^-6 M.

Turning to `CC(C)C[C@@H]1NC(=O)[C@@H](CC(C)C)NC(=O)[C@@H](CC(=O)O)NC(=O)[C@H](C)NC(=O)[C@@H](CC(=O)O)NC(=O)[C@@H](Cc2c[nH]c3ccccc23)NC1=O` [Example 2, cyclo[-D-Asp-Ala-D-Asp-D-Leu-Leu-D-Trp-]] (cyclo(A[dD][dL]L[dW][dD])), the “Binding Activity on ET Receptor (R. act.) ETB*2” value in the test with ETB came out at 3.1. The “Binding Activity on ET Receptor (R. act.) ETA” value in test [1] is given as 3.7.
`CC(C)C[C@@H]1NC(=O)[C@@H](CC(C)C)NC(=O)[C@H](CCC(=O)O)NC(=O)[C@H](C)NC(=O)[C@@H](CC(=O)O)NC(=O)[C@@H](Cc2c[nH]c3ccccc23)NC1=O` [Example 3, cyclo[-D-Asp-Ala-Glu-D-Leu-Leu-D-Trp-]] (cyclo(AE[dL]L[dW][dD])): the “Binding Activity on ET Receptor (R. act.) ETB*2” value with ETB is 23. Besides, the “Binding Activity on ET Receptor (R. act.) ETA” value in test [1] is on record as 7.9.
The matching figures for `CC(C)C[C@@H]1NC(=O)[C@@H](CC(C)C)NC(=O)[C@@H](CCC(=O)O)NC(=O)[C@H](C)NC(=O)[C@@H](CC(=O)O)NC(=O)[C@@H](Cc2c[nH]c3ccccc23)NC1=O` [Example 4, cyclo[-D-Asp-Ala-D-Glu-D-Leu-Leu-D-Trp-]] (cyclo(A[dE][dL]L[dW][dD])): 1.4 and 2.3.
`CC(C)C[C@@H]1NC(=O)[C@@H](CC(C)C)NC(=O)[C@H](C)NC(=O)CNC(=O)[C@@H](CC(=O)O)NC(=O)[C@@H](Cc2c[nH]c3ccccc23)NC1=O` [Example 5, cyclo[-D-Asp-Gly-Ala-D-Leu-Leu-D-Trp-]] (cyclo(A[dL]L[dW][dD]G)): in test [1], the “Binding Activity on ET Receptor (R. act.) ETA” value amounted to 1.3.
`CC(C)C[C@@H]1NC(=O)[C@@H](CC(C)C)NC(=O)[C@H](C)NC(=O)[C@H](CC(=O)O)NC(=O)[C@@H](CC(=O)O)NC(=O)[C@@H](Cc2c[nH]c3ccccc23)NC1=O` [Example 6, cyclo[-D-Asp-Asp-Ala-D-Leu-Leu-D-Trp-]] (cyclo(A[dL]L[dW][dD]D)): the “Binding Activity on ET Receptor (R. act.) ETB*2” value in the test with ETB amounted to 7.1. The “Binding Activity on ET Receptor (R. act.) ETA” value in test [1] turned out to be 6.0.
The like results for `CC(C)C[C@@H]1NC(=O)[C@@H](CC(C)C)NC(=O)[C@H](C)NC(=O)[C@H](CCC(=O)O)NC(=O)[C@@H](CC(=O)O)NC(=O)[C@@H](Cc2c[nH]c3ccccc23)NC1=O` [Example 7, cyclo[-D-Asp-Glu-Ala-D-Leu-Leu-D-Trp-]] (cyclo(A[dL]L[dW][dD]E)) were, in that order, 7.1 and 6.5.
The like results for `CC(C)C[C@@H]1NC(=O)[C@@H](CC(C)C)NC(=O)[C@H](CC(=O)O)NC(=O)[C@@H](C)NC(=O)[C@@H](CC(=O)O)NC(=O)[C@@H](Cc2c[nH]c3ccccc23)NC1=O` [Example 15, Cyclo[-D-Asp-D-Ala-Asp-D-Leu-Leu-D-Trp-]] (cyclo(D[dL]L[dW][dD][dA])) were, in that order, 7.7 and 5.7.
The like results for `CC(C)C[C@@H]1NC(=O)[C@@H](CC(C)C)NC(=O)[C@H](CC(=O)O)NC(=O)[C@H](C(C)C)NC(=O)[C@@H](CC(=O)O)NC(=O)[C@@H](Cc2c[nH]c3ccccc23)NC1=O` [Example 17, Cyclo[-D-Asp-Val-Asp-D-Leu-Leu-D-Trp-]] (cyclo(D[dL]L[dW][dD]V)) were, in that order, 22 and 3.7.
Consider `CC(C)C[C@@H]1NC(=O)[C@@H](CC(C)C)NC(=O)[C@H](CC(=O)O)NC(=O)[C@H](CC(C)C)NC(=O)[C@@H](CC(=O)O)NC(=O)[C@@H](Cc2c[nH]c3ccccc23)NC1=O` [Example 18, Cyclo[-D-Asp-Leu-Asp-D-Leu-Leu-D-Trp-]] (cyclo(D[dL]L[dW][dD]L)), for which the “Binding Activity on ET Receptor (R. act.) ETB*2” value with ETB came out at 2.2. Moreover, the “Binding Activity on ET Receptor (R. act.) ETA” value in test [1] is 13.
The like results for `CC(C)C[C@@H]1NC(=O)[C@@H](CC(C)C)NC(=O)[C@H](CC(=O)O)NC(=O)[C@H](Cc2ccccc2)NC(=O)[C@@H](CC(=O)O)NC(=O)[C@@H](Cc2c[nH]c3ccccc23)NC1=O` [Example 19, Cyclo[-D-Asp-Phe-Asp-D-Leu-Leu-D-Trp-]] (cyclo(D[dL]L[dW][dD]F)) were, in that order, 7.1 and 8.3.
The like results for `CC(C)C[C@@H]1NC(=O)[C@@H](CC(C)C)NC(=O)[C@H](CC(=O)O)NC(=O)[C@H](COCc2ccccc2)NC(=O)[C@@H](CC(=O)O)NC(=O)[C@@H](Cc2c[nH]c3ccccc23)NC1=O` [Example 20, Cyclo[-D-Asp-Ser(Bzl)-Asp-D-Leu-Leu-D-Trp-]] (cyclo(D[dL]L[dW][dD]S(Bn))) were, in that order, 13 and 14.
As to `CC(C)C[C@@H]1NC(=O)[C@@H](CC(C)C)NC(=O)[C@H](CC(=O)O)NC(=O)[C@H]2CCCN2C(=O)[C@@H](CC(=O)O)NC(=O)[C@@H](Cc2c[nH]c3ccccc23)NC1=O` [Example 24, Cyclo[-D-Asp-D-Pro-Asp-D-Leu-Leu-D-Trp-]] (cyclo(D[dL]L[dW][dD][dP])), the “Binding Activity on ET Receptor (R. act.) ETA” value in test [1] is on record as 1.7.
`CC(C)C[C@@H]1NC(=O)[C@@H](CC(C)C)NC(=O)[C@H](C)NC(=O)[C@@H](CC(=O)O)NC(=O)[C@@H](CC(=O)O)NC(=O)[C@@H](Cc2c[nH]c3ccccc23)NC1=O` [Example 27, Cyclo[-D-Asp-D-Asp-Ala-D-Leu-Leu-D-Trp-]] (cyclo(A[dL]L[dW][dD][dD])): in the test with ETB, the “Binding Activity on ET Receptor (R. act.) ETB*2” value is given as 4.8. In addition, in test [1], the “Binding Activity on ET Receptor (R. act.) ETA” value turned out to be 5.7.
The like results for `CC(C)C[C@@H]1NC(=O)[C@@H](CC(C)C)NC(=O)[C@H](C)NC(=O)[C@@H](CCC(=O)O)NC(=O)[C@@H](CC(=O)O)NC(=O)[C@@H](Cc2c[nH]c3ccccc23)NC1=O` [Example 28, Cyclo[-D-Asp-D-Glu-Ala-D-Leu-Leu-D-Trp-]] (cyclo(A[dL]L[dW][dD][dE])) were, in that order, 5.3 and 5.7.
The matching figures for `CC(C)C[C@@H]1NC(=O)[C@@H](CC(C)C)NC(=O)[C@@H](C)NC(=O)[C@H](CC(=O)O)NC(=O)[C@@H](CC(=O)O)NC(=O)[C@@H](Cc2c[nH]c3ccccc23)NC1=O` [Example 29, Cyclo[-D-Asp-Asp-D-Ala-D-Leu-Leu-D-Trp-]] (cyclo(D[dA][dL]L[dW][dD])): 2.4 and 2.6.
Turning to `CC(C)C[C@@H]1NC(=O)[C@@H](CC(C)C)NC(=O)CNC(=O)[C@H](C)NC(=O)[C@@H](CCC(=O)O)NC(=O)[C@@H](Cc2c[nH]c3ccccc23)NC1=O` [Example 40, Cyclo[-D-Glu-Ala-Gly-D-Leu-Leu-D-Trp-]] (cyclo(AG[dL]L[dW][dE])), the “Binding Activity on ET Receptor (R. act.) ETA” value in test [1] came to 1.4.
With `CC(C)C[C@H]1NC(=O)[C@H](CC(=O)O)NC(=O)[C@H](C)NC(=O)[C@@H](CC(=O)O)NC(=O)[C@@H](Cc2c[nH]c3ccccc23)NC(=O)[C@H](Cc2ccccc2)NC1=O` [Example 57, Cyclo[-D-Asp-Ala-Asp-D-Leu-Phe-D-Trp-]] (cyclo(AD[dL]F[dW][dD])), the “Binding Activity on ET Receptor (R. act.) ETB*2” value in the test with ETB was 2.0.
